# According to patent US20090221543A1, “NEW CORTICOSTEROIDS” (NICOX S A., priority 2002, published 2009):
# Like-named read-outs stand apart in the source and are kept apart here.
# Tests used:
# [1] = system: bronchoconstriction caused by histamine; assay: Bronchoconstriction caused by histamine in guinea pigs (sGaw, whole body plethysmography); assay type: in vivo
# Description: Male guinea pigs weighing between 250 and 300 g for several days before the beginning of the experiment have been accustomed to the restrained and whole-body plethysmograph. Histamine (3 mM dissolved in saline solution 0.9%) has been administered by intranasal route for 20 seconds 24 hours before and 15 minutes after the administration of the tested compounds. NO-Budesonide (635: g/ml) and Budesonide (448: g/ml) dissolved in a mixture (v/v) DMSO 20%, ethanol 10%, saline physiological solution 70%, or the carrier, have been administered to the animals as aerosols, in a sealed room, using a wright nebulizer operating by compressed air at a pressure of 21.38×10^3 Pa (20 p.s.i.) and a flow of 0.5 ml/min. The administration lasted 15 minutes.
# To monitor the functionality of the animal airways the “whole body” plethysmography has been used. The animals were watchful and functionality has been determined as specific conductance of the airways (sGaw), expressed in % change of the basal value in the instant immediately after the exposure. To this purpose the animals were provided with a suitable mask and then transferred in a sealed room. The respiratory flow has been determined by a pneumotachograph and a pressure transducer.
# glucocorticoid receptor = biological target: T1, glucocorticoid receptor (Homo sapiens, UniProt P04150); assay: GR binding assay: displacement of 3H-dexamethasone from glucocorticoid binding sites in human monocytes; conditions: 3H-dexamethasone 50 nM, 37° C., 1 hour
# T1 construct: The monocytes have been isolated from human blood by a method based on a density gradient; endogenous in cells; host or cells: primary human blood monocytes (Ficoll-Hypaque isolated), intact cells
# T1 sequence (P04150 1-777): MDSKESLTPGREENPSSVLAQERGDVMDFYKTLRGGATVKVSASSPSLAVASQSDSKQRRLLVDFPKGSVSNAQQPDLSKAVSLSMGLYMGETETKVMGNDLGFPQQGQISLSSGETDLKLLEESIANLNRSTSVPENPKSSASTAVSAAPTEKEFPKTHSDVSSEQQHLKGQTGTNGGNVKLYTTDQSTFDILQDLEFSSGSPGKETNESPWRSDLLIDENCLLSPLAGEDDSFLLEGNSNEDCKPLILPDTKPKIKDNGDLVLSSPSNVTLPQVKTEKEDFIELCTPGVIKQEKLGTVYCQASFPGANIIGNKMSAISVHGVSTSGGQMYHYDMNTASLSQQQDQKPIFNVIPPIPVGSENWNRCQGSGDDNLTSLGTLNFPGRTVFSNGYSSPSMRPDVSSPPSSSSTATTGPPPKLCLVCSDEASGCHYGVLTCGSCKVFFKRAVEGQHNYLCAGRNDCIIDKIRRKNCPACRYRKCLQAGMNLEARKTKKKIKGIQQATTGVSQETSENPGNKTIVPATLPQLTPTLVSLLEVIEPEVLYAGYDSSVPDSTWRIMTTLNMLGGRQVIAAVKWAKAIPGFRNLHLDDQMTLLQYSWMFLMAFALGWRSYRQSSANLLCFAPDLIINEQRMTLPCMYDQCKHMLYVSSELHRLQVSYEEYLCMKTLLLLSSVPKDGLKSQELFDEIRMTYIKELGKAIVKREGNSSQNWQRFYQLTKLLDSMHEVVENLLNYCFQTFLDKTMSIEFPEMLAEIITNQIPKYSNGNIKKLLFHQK
# Description: In these experiments human monocytes having on their surface receptors for glucocorticoids have been used.
# In this experiment the capability of the tested substances to displace ^3H-dexamethasone from the bond sites for the glucorticoids present in human monocytes has been evaluated.
# The test tube content has been mixed using a Vortex equipment. The test tubes have then been incubated at 37° C. for 1 hour.
# After incubation, the cells have been washed 4 times with a saline solution in phosphate buffer cooled in ice bath (PBS, 0.01 M) and the amount of [^3H]-dexamethasone bound to the cells has been determined by liquid scintigraphy. For each sample the concentration of [^3H]-dexamethasone bound to the cells (femtomoles (fmoles)/ml 10^−15 moles/ml) has been calculated by substracting from the measured values the non specific bond value, and then multiplying by the ratio molarity/radioactivity.
# The data reported in the Tables are expressed in fmole [^3H]-dexamethasone/ml.
# [2] = assay type: in vivo, Sprague Dawley rats; conditions: 5 mg/Kg/die i.p. for 3 weeks
# Description: […]. The controls have been treated with the carrier (peanut oil 0.5 ml/rat/die i.p. for 3). At the end of the treatment the average arterial pressure (MABP) and the heart-beat have been controlled in the rats. […]. treated group 348±18, n=9).
# [3] = system: arthritis caused by collagen; assay: Anti-arthritic activity in collagen-induced arthritis in rats; assay type: in vivo, Lewis rats; conditions: 4 :moles/kg i.p.; for Hind Legs Articulations Sizes: day 12 to 18, measured on day 18, control 7.03, naive 5.9; for histological analysis of the articulations: day 18; for Leg Average Volume: plethysmometer, control 1.5, naive 1.1; for Hip Functionality Evaluation (Score): score 0 (absence of inflammation) to 3 (serious inflammation), control 1.6; for Hind Legs Articulations Reduction %: with respect to the control group treated only with collagen suspension
# Description: Lewis female rats weighing 150-200 g fed by a standard diet and with free access to water have been stabulated with cycles of 12 hours light/dark.
# To carry out the experiment, the rats were anaesthetized with halothane (day zero), then at the base of the tail, by intradermal injection, a collagen suspension II/Freund's incomplete adjuvant (400: g/rat) was injected, prepared as described hereinafter: nasal bovine collagen of type II (Sigma-Aldrich, 4 mg/ml) has been dissolved in acetic acid (0.01 M) and emulsified with a same volume of cold Freund's incomplete adjuvant (Sigma-Aldrich).
# The arthritic pathology became evident between the 11th and the 13th day, with a maximum inflammation at the 18th day in untreated rats.
# From the 12th to the 18th day subsequent to the injection, the rats, divided in 3 groups of 10 animals each, have been treated i.p. according to the following protocol:
# A fourth group of healthy rats (naive) has been taken as a further reference.
# During the treatment with the tested compounds the antiarthritic activity has been evaluated by the following parameters: • average paw volume determined by a plethysmometer; • clinical evaluation of the hip functionality by an arbitrary score from 0 (absence of inflammation) to 3 (serious inflammation, which affects both the hip articulation and the animal paw).
# On the 18th day the rats were sacrificed and the diameters of the femoral articulations of the animal hind legs were determined after skin removal; and an histological analysis of the articulations was carried out.
# In table 5 there are reported: • the articulation sizes expressed in mm, • the percent reduction of the articulation size calculated with respect to the control rat group treated only with the collagen suspension, • the paw average volume, expressed in ml, daily determined, • the score evaluation of the hip functionality.
# primary rat osteoclastes [4] = conditions: 18 h, 1 nM
# [5] = system: gastric damage caused by ischaemia-reperfusion; assay: Gastric damage caused by ischaemia-reperfusion in rats; conditions: 28 :moles/kg by os 2 hours before the ischaemia; control 3 ± 1
# [6] = system: spinal lesions from trauma; assay: Recovery of motor functions after spinal lesions from trauma in rats (BBB score); conditions: 20 mg/kg s.c. once a day for 5 days
# primary rat osteoclastes [7] = assay: Osteoclastic activity in vitro (reabsorption areas on calcium phosphate plaques); conditions: 1 nM, 18 hours at 37° C.; control 100
# [8] = t0 = 24 hours before the inhalation of the tested compound
# [9] = t1 = 15 minutes after the inhalation of the tested compound, aerosol for 15 minutes, equimolar doses (635 / 448 :g/ml)
structure (smiles),measurement,setting,value
"CCCC1O[C@@H]2C[C@H]3[C@@H]4CCC5=CC(=O)C=C[C@]5(C)[C@H]4[C@@H](O)C[C@]3(C)[C@]2(C(=O)CO)O1 (stereo partly drawn) [Budesonide, reference compound]","specific conductance of the airways (sGaw), % change of the basal value after histamine",[1]; [8],−28.7 ± 8.8%
same,"specific conductance of the airways (sGaw), % change of the basal value after histamine",[1]; [9],−42.6 ± 15.9%
"CCCC1O[C@@H]2CC3C4CCC5=CC(=O)C=C[C@]5(C)C4[C@@H](O)C[C@]3(C)[C@]2(C(=O)COC(=O)c2ccc(CO[N+](=O)[O-])cc2)O1 (stereo partly drawn) [Budesonide-NO, Budesonide 21-(4′-nitrooxymethyl)benzoate]",inhibition of the bronchoconstriction caused by histamine,"[1]; aerosol, equimolar doses",100%
same,"specific conductance of the airways (sGaw), % change of the basal value after histamine",[1]; [8],−29.7 ± 9.8%
same,"specific conductance of the airways (sGaw), % change of the basal value after histamine",[1]; [9],+1.4 ± 7.9%
"C[C@@H]1CC2C3CCC4=CC(=O)C=C[C@]4(C)[C@@]3(F)[C@@H](O)C[C@]2(C)[C@@]1(O)C(=O)COC(=O)c1ccc(CO[N+](=O)[O-])cc1 (stereo partly drawn) [Dex-Ar—ONO2, Dexamethasone 21-(4′-nitrooxymethyl)benzoate]",Bound 3H Dexamethasone,glucocorticoid receptor; tested compound 0.1 μM,1.1 fmol/mL
"C[C@]12CCC(=O)C=C1CCC1C2[C@@H](O)C[C@@]2(C)C1CC[C@]2(O)C(=O)COC(=O)c1ccc(CO[N+](=O)[O-])cc1 (stereo partly drawn) [Hydr-Ar—ONO2, Hydrocortisone 21-(4′-nitrooxymethyl)benzoate]",Bound 3H Dexamethasone,glucocorticoid receptor; tested compound 0.3 :M,17.3 fmol/mL
same,Bound 3H Dexamethasone,glucocorticoid receptor; tested compound 10 :M,0 fmol/mL
"C[C@]12CCC(=O)C=C1CC[C@@H]1[C@@H]2[C@@H](O)C[C@@]2(C)[C@H]1CC[C@]2(O)C(=O)COC(=O)CCCO[N+](=O)[O-] [Hydr-C4—ONO2, Hydrocortisone-21-(4-nitrooxybutyrate), reference compound]",Bound 3H Dexamethasone,glucocorticoid receptor; tested compound 0.3 :M,25.6 fmol/mL
same,Bound 3H Dexamethasone,glucocorticoid receptor; tested compound 10 :M,4.3 fmol/mL
"C[C@]12C=CC(=O)C=C1CCC1C2[C@@H](O)C[C@@]2(C)C1CC[C@]2(O)C(=O)COC(=O)c1ccc(CO[N+](=O)[O-])cc1 (stereo partly drawn) [Predn-Ar—ONO2, Prednisolone 21-(4′-nitrooxymethyl)benzoate]",Bound 3H Dexamethasone,glucocorticoid receptor; tested compound 1 μM,0 fmol/mL
same,heart-beat,[2]; control 330±32,348±18
same,average arterial pressure (MABP),[2]; controls 110±4,128±7
same,Hind Legs Articulations Sizes,[3],5.7 mm
same,histological analysis of the articulations,[3],"both the synovial inflammation and the infiltration of inflammatory cells in cartilages were minimal, without compromising the cartilages"
same,Leg Average Volume,[3],1.1 mL
same,Hip Functionality Evaluation (Score),[3],0.1 Score
same,Hind Legs Articulations Reduction %,[3],18.6%
same,% Reabsorbed Area with Respect to Control Area,primary rat osteoclastes [4],90%
same,Lesion Index (LI),[5],7 ± 2.1
same,Motor Behaviour Evaluation (BBB score),"[6]; 3rd day after trauma, 0 = does not walk, 20 = normal, control 4",8
same,Motor Behaviour Evaluation (BBB score),"[6]; 5th day after trauma, control 6",14
same,Motor Behaviour Evaluation (BBB score),"[6]; 7th day after trauma, control 8",17
"C[C@]12C=CC(=O)C=C1CC[C@@H]1[C@@H]2[C@@H](O)C[C@@]2(C)[C@H]1CC[C@]2(O)C(=O)COC(=O)CCCO[N+](=O)[O-] [Predn-C4—ONO2, Prednisolone 21-(4-nitrooxy)butyrate, reference compound]",Bound 3H Dexamethasone,glucocorticoid receptor; tested compound 1 μM,9.9 fmol/mL
"C[C@]12C=CC(=O)C=C1CC[C@@H]1[C@@H]2[C@@H](O)C[C@@]2(C)[C@H]1CC[C@]2(O)C(=O)COC(=O)CN1CCN(CCCO[N+](=O)[O-])CC1.O=C(O)C(F)(F)F.O=C(O)C(F)(F)F [Predn-pyper-C3—ONO2, Prednisolone-21-[2-[4-(3-nitrooxypropyl)piperazin-1-yl]acetate]bis-trifluoromethanacetate]",Bound 3H Dexamethasone,glucocorticoid receptor; tested compound 1 μM,2.4 fmol/mL
"C[C@]12C=CC(=O)C=C1CC[C@@H]1[C@@H]2[C@@H](O)C[C@@]2(C)[C@H]1CC[C@]2(O)C(=O)COC(=O)CN1CCN(CCCO[N+](=O)[O-])CC1.Cl.Cl [Predn-pyper-ONO2, Prednisolone-21-[2-[4-(3-nitrooxypropyl)piperazin-1-yl]acetate]bishydrochloride]",Bound 3H Dexamethasone,glucocorticoid receptor; tested compound 1 μM,5.5 fmol/mL
"C[C@]12C=CC(=O)C=C1CC[C@@H]1[C@@H]2[C@@H](O)C[C@@]2(C)[C@H]1CC[C@]2(O)C(=O)CO [Prednisolone, reference compound]",Hind Legs Articulations Sizes,[3],6.1 mm
same,histological analysis of the articulations,[3],cartilage ulcerations and synovial inflammation were present
same,Leg Average Volume,[3],1.26 mL
same,Hip Functionality Evaluation (Score),[3],0.6 Score
same,Hind Legs Articulations Reduction %,[3],12.7%
same,Lesion Index (LI),[5],44 ± 2.5
same,% Reabsorbed Area with Respect to Control Area,primary rat osteoclastes [7],148%
